Reference: ChEMBL document CHEMBL6078700, “Synthesis of novel deuterated EGFR/ALK dual-target inhibitors and their activity against non-small cell lung cancer” (Eur J Med Chem, 2025)

How the values were obtained:
[1] = test system: PC-9; assay: Antiproliferative activity against human PC-9 cells expressing EGFR mutation incubated for 48 hrs by CCK8 assay
[2] = Antiproliferative activity against human NCI-H1975 cells expressing EGFR mutation incubated for 48 hrs by CCK8 assay
[3] = test system: NCI-H2228; assay: Antiproliferative activity against human NCI-H2228 cells expressing EML4-ALK fusion incubated for 48 hrs by CCK8 assay
[4] = test system: NCI-H522; assay: Antiproliferative activity against human NCI-H522 cells expressing wild-type EGFR/ALK incubated for 48 hrs by CCK8 assay
[5] = test system: BaF3; assay: Antiproliferative activity against mouse BaF3 cells expressing EML4-ALK fusion incubated for 48 hrs by CCK8 assay
[6] = Metabolic stability in human liver microsomes assessed as clearance at 1 uM measured for 60 mins by LC-MS/MS analysis; type: ADME, Microsome; details: read-out: CLH
[7] = Metabolic stability in human liver microsomes assessed as half life at 1 uM measured for 60 mins by LC-MS/MS analysis; type: ADME, Microsome
[8] = molecular target: EML4-ALK (Homo sapiens, UniProt Q9UM73); assay: Inhibition of EML4-ALK (unknown origin) phosphorylation by ELISA; type: protein assay
EML4-ALK, sequence (Q9UM73 whole entry): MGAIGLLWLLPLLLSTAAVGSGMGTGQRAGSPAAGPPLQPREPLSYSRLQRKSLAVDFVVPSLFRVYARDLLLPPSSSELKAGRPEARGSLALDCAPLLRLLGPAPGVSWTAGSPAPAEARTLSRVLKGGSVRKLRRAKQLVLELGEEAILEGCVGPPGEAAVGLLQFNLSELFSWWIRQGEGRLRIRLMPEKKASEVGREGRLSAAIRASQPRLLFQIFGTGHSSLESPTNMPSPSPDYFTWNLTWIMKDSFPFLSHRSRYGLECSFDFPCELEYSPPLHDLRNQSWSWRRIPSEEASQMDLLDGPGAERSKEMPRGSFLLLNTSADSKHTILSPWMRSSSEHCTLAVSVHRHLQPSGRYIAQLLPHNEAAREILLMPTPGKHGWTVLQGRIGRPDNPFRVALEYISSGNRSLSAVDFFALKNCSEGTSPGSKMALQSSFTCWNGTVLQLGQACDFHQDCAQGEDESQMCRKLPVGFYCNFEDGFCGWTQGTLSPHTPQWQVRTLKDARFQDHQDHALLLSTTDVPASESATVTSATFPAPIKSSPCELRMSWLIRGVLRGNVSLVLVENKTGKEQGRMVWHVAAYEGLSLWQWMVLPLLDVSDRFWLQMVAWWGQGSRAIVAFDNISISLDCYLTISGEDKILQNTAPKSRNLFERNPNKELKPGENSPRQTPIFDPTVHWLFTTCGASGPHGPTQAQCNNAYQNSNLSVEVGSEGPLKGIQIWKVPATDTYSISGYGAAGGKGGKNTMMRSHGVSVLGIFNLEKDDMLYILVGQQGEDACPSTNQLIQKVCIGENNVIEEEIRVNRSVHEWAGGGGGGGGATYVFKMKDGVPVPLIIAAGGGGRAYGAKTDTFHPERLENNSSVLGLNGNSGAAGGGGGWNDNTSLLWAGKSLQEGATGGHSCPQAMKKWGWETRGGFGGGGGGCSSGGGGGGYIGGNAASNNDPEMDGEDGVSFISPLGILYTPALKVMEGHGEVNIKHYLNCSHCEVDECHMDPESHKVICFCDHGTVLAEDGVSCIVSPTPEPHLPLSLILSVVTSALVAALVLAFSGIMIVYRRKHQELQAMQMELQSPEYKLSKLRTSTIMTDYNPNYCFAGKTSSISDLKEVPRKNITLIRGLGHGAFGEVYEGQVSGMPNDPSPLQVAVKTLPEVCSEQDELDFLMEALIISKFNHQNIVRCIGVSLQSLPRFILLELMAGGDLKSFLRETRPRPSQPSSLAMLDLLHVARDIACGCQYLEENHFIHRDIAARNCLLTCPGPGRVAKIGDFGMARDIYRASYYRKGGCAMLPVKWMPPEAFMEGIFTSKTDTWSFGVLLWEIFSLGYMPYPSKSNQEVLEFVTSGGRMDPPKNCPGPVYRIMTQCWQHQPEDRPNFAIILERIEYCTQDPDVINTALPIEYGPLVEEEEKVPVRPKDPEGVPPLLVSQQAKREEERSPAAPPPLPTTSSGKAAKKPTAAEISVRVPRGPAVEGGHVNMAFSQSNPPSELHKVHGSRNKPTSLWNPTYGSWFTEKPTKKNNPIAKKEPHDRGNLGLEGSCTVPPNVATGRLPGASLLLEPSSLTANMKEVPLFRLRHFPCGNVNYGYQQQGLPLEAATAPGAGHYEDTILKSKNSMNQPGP
EML4-ALK, sequence (Q9HC35 whole entry, further chain): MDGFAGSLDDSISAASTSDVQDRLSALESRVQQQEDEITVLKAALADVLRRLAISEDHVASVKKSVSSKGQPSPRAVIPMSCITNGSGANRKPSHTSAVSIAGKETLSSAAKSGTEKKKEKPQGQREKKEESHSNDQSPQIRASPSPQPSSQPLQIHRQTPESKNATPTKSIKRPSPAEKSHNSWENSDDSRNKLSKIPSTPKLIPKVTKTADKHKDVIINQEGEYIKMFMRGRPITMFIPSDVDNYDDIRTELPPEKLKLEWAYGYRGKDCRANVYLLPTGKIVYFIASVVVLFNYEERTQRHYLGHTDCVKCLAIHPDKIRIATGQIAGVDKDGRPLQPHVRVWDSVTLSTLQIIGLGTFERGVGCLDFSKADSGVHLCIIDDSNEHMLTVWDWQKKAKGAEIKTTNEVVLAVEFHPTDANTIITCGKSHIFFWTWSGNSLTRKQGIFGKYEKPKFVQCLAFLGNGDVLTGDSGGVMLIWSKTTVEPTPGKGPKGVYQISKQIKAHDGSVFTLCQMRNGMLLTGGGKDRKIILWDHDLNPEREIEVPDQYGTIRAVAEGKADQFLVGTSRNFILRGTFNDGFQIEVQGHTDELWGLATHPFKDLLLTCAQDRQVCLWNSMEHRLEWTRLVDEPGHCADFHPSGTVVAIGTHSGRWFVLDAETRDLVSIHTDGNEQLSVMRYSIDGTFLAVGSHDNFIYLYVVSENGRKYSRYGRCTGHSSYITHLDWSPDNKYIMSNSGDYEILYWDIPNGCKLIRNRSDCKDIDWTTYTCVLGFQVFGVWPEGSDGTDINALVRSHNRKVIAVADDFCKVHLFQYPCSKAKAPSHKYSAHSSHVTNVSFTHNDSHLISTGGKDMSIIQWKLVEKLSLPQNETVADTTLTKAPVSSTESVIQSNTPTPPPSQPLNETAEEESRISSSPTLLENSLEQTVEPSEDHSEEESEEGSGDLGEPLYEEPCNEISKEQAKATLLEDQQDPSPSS

[9] = test system: NCI-H1975; assay: Antitumor activity against human NCI-H1975 cells xenografted in BALB/c-nu mouse at 30 mg/kg, po administered daily orally for 7 days relative to control; type: functional; details: time 7 day; for inhibition in vivo at 30 mg/kg: Mus musculus, NCI-H1975, 168 h, read-out: TGI
[10] = test system: NCI-H1975; assay: Antitumor activity against human NCI-H1975 cells xenografted in BALB/c-nu mouse at 30 mg/kg, po administered daily orally for 21 days relative to control; type: functional; details: time 21 day
[11] = test system: NCI-H1975; assay: Antitumor activity against human NCI-H1975 cells xenografted in BALB/c-nu mouse at 5 mg/kg, po administered daily orally for 21 days relative to control; type: functional; details: time 21 day, 5 mg/kg, 504 h
[12] = test system: NCI-H1975; assay: Antitumor activity against human NCI-H1975 cells xenografted in BALB/c-nu mouse at 15 mg/kg, po administered daily orally for 21 days relative to control; type: functional; details: time 21 day, 15 mg/kg, 504 h
[13] = test system: NCI-H1975; assay: Induction of cell cycle arrest in human NCI-H1975 cells assessed as accumulation at G0/G1 phase at 5 nM incubated for 24 hrs by PI/RNase staining based flow cytometry (reference value: 50.19 %); type: functional
[14] = test system: NCI-H1975; assay: Induction of cell cycle arrest in human NCI-H1975 cells assessed as accumulation at G2/M phase at 5 nM incubated for 24 hrs by PI/RNase staining based flow cytometry (reference value: 32.71 %); type: functional
[15] = test system: NCI-H1975; assay: Induction of apoptosis in human NCI-H1975 cells assessed as necrotic cells at 5 nM incubated for 48 hrs by allo-Phycocyanin-Annexin V staining based flow cytometry (reference value: 0.031 %); type: functional
[16] = test system: NCI-H1975; assay: Induction of cell cycle arrest in human NCI-H1975 cells assessed as accumulation at S phase at 5 nM incubated for 24 hrs by PI/RNase staining based flow cytometry (reference value: 17.1 %); type: functional
[17] = test system: NCI-H1975; assay: Induction of apoptosis in human NCI-H1975 cells assessed as viable cells at 5 nM incubated for 48 hrs by allo-Phycocyanin-Annexin V staining based flow cytometry (reference value: 93.6 %); type: functional
[18] = test system: NCI-H1975; assay: Induction of apoptosis in human NCI-H1975 cells assessed as early apoptotic cells at 5 nM incubated for 48 hrs by allo-Phycocyanin-Annexin V staining based flow cytometry (reference value: 2.27 %); type: functional
[19] = test system: NCI-H1975; assay: Induction of apoptosis in human NCI-H1975 cells assessed as late apoptotic cells at 5 nM incubated for 48 hrs by allo-Phycocyanin-Annexin V staining based flow cytometry (reference value: 4.08 %); type: functional

Row | Compound | IC50 ([1]; Homo sapiens, PC-9, 48 h) [nM] | IC50 ([3]; Homo sapiens, NCI-H2228, 48 h) [nM] | IC50 ([4]; Homo sapiens, NCI-H522, 48 h) [nM] | IC50 ([5]; Mus musculus, BaF3, 48 h) [nM] | microsomal CLint at 1 µM [6] [µL/min/mg] | half-life at 1 µM [7] [min] | IC50 [8] [nM] | IC50 ([2]; Homo sapiens, NCI-H1975, 48 h) [nM] | further results
1 | [2H]C([2H])([2H])C([2H])([2H])[S+]([O-])c1cc(Cl)ccc1Nc1nc(Nc2cc(NC(=O)C=C)c(N(C)CCN(C)C)cc2OC)ncc1Cl (stereo not given) | 3.91 | 32.4 | 2710 | 3.61 | 68.7 | 50.5 | 8.81 | 3.88 | –
2 | [2H]C([2H])([2H])C([2H])([2H])[S+]([O-])c1c(F)cccc1Nc1nc(Nc2cc(NC(=O)C=C)c(N(C)CCN(C)C)cc2OC)ncc1Cl (stereo not given) | 5.13 | 58.2 | 5330 | 7.74 | 27.7 | 125 | 5.59 | 9.56 | inhibition in vivo at 30 mg/kg [9]: 85.9%
3 | C=CC(=O)Nc1cc(Nc2ncc(Cl)c(Nc3ccccc3[S+]([O-])CC)n2)c(OC)cc1N(C)CCN(C)C (stereo not given) | 6.1 | 43.1 | – | 3.6 | – | – | 4.69 | 4.3 | –
4 | C=CC(=O)Nc1cc(Nc2ncc(Cl)c(Nc3cccc(F)c3[S+]([O-])CC)n2)c(OC)cc1N(C)CCN(C)C (stereo not given) | 3.14 | 66.8 | 7860 | 4.03 | 15.5 | 223 | 4.47 | 2.79 | inhibition in vivo at 30 mg/kg [9]: 75.3%
5 | C=CC(=O)Nc1cc(Nc2ncc(Cl)c(Nc3cccc(Cl)c3[S+]([O-])CC)n2)c(OC)cc1N(C)CCN(C)C (stereo not given) | < 0.001 | 54.2 | 2420 | 36 | 66.7 | 52 | 7.32 | 3.76 | –
6 | [2H]C([2H])([2H])C([2H])([2H])[S+]([O-])c1ccccc1Nc1nc(Nc2cc(NC(=O)C=C)c(N(C)CCN(C)C)cc2OC)ncc1Cl (single isomer, unassigned; (+)) | – | – | – | – | – | – | – | – | IC50 ([1]; pc-9): 6.88 nM; TGI ([10]; 30 mg/kg, 504 h): 91.87%; TGI [11]: 72.01%; IC50 ([2]; nci-h1975): 5.36 nM; IC50 ([3]; nci-h2228): 37.6 nM; IC50 ([4]; nci-h522): 6330 nM; IC50 ([5]; baf3): 18.3 nM; TGI [12]: 86.97%
7 | C=CC(=O)Nc1cc(Nc2nccc(-c3cn(C)c4ccccc34)n2)c(OC)cc1N(C)CCN(C)C [OSIMERTINIB] | 6.43 | 1840 | 2320 | 327 | – | – | – | 4.16 | Activity [13]: 65.8%; Activity [14]: 27.24%; Activity [15]: 0.032%; Activity [16]: 6.87%; TGI [10]: 95.05%; Activity [17]: 71.1%; Activity [18]: 12.2%; Activity [19]: 16.7%; TGI [9]: 94.73%

The next lines start with results.

Row | IC50 ([1]; Homo sapiens, PC-9, 48 h) [nM] | IC50 ([3]; Homo sapiens, NCI-H2228, 48 h) [nM] | IC50 ([4]; Homo sapiens, NCI-H522, 48 h) [nM] | IC50 ([5]; Mus musculus, BaF3, 48 h) [nM] | microsomal CLint at 1 µM [6] [µL/min/mg] | half-life at 1 µM [7] [min] | IC50 [8] [nM] | Compound | IC50 ([2]; Homo sapiens, NCI-H1975, 48 h) [nM] | further results
8 | 2.53 | 18.9 | 1380 | 2.37 | 132 | 26.3 | 6.81 | C=CC(=O)Nc1cc(Nc2ncc(Cl)c(Nc3ccc(Cl)cc3[S+]([O-])C(C)C)n2)c(OC)cc1N(C)CCN(C)C (stereo not given) | 3.77 | –
9 | 45.9 | 12.5 | 2730 | 14.4 | 109 | 31.9 | 10 | [2H]C([2H])([2H])C([2H])([S+]([O-])c1ccccc1Nc1nc(Nc2cc(NC(=O)C=C)c(N(C)CCN(C)C)cc2OC)ncc1Cl)C([2H])([2H])[2H] (stereo not given) | 9.26 | –
10 | 2.81 | 23.8 | 2490 | 2.97 | 107 | 32.3 | 5.47 | C=CC(=O)Nc1cc(Nc2ncc(Cl)c(Nc3cccc(F)c3[S+]([O-])C(C)C)n2)c(OC)cc1N(C)CCN(C)C (stereo not given) | 7.59 | –
11 | 4.05 | 22.5 | 2380 | 9.31 | 92 | 37.7 | 7.39 | C=CC(=O)Nc1cc(Nc2ncc(Cl)c(Nc3cccc(Cl)c3[S+]([O-])C(C)C)n2)c(OC)cc1N(C)CCN(C)C (stereo not given) | 7.55 | –
12 | 5.56 | 23.7 | 2160 | 16.1 | 70.5 | 49.1 | 2.09 | [2H]C([2H])([2H])C([2H])([S+]([O-])c1c(F)cccc1Nc1nc(Nc2cc(NC(=O)C=C)c(N(C)CCN(C)C)cc2OC)ncc1Cl)C([2H])([2H])[2H] (stereo not given) | 17.2 | –
13 | – | 29.2 | – | – | 21.4 | 162 | 3.72 | [2H]C([2H])([2H])C([2H])([2H])[S+]([O-])c1ccccc1Nc1nc(Nc2cc(NC(=O)C=C)c(N(C)CCN(C)C)cc2OC)ncc1Cl (racemic) | – | IC50 ([1]; pc-9): 6.32 nM; IC50 ([2]; nci-h1975): 2.33 nM; IC50 ([4]; nci-h522): 4630 nM; IC50 ([5]; baf3): 3.53 nM; inhibition in vivo at 30 mg/kg [9]: 96.8%
14 | 983 | 28.9 | 4610 | 7.46 | – | – | – | COc1cc(N2CCC(N3CCN(C)CC3)CC2)ccc1Nc1ncc(Cl)c(Nc2ccccc2P(C)(C)=O)n1 [BRIGATINIB] | 484 | –
15 | 2150 | 18.3 | 2760 | 10.1 | – | – | – | Cc1cc(Nc2ncc(Cl)c(Nc3ccccc3S(=O)(=O)C(C)C)n2)c(OC(C)C)cc1C1CCNCC1 [CERITINIB] | 2110 | –
